Experimental data reported in publication PMC3183312 (European journal of medicinal chemistry, 2011).

tested on: not listed separately; experiment: Chemical stability analysis in acidic conditions with HPLC monitoring; type: physicochemical; details: 1% HCl/MeOH/rt; peak area percentage by HPLC; preliminary

SMILES	Purity (area %) Reaction Time = 1 min
CCc1cc(=O)c2ccc(OC(C)C)c(COC(=O)C34CCC(C)(C(=O)O3)C4(C)C)c2o1 (stereo not drawn) [Compound 12, 4′-((−)-Camphanoyloxymethyl)-2-ethyl-7-isopropoxy-4H-chromen-4-one]	100%
Cc1cc(=O)oc2c3c(ccc12)OC(C)(C)[C@H](OC(=O)[C@@]12CC[C@@](C)(C(=O)O1)C2(C)C)[C@@H]3OC(=O)[C@@]12CC[C@@](C)(C(=O)O1)C2(C)C [Compound 2, 4-methyl-DCK]	100%
Cc1cc(=O)oc2c(COC(=O)[C@@]34CC[C@@](C)(C(=O)O3)C4(C)C)c(SC(C)C)ccc12 [Compound 32, 4′-((−)-Camphanoyloxymethyl)-7-(isopropylthio)-4-methyl-2H-chromen-2-one]	100%
Cc1cc(=O)oc2c(COC(=O)[C@@]34CC[C@@](C)(C(=O)O3)C4(C)C)c(OC(C)C)ccc12 [Compound 7]	100%
CCc1cc(=O)c2ccc3c(c2o1)[C@@H](OC(=O)C12CCC(C)(C(=O)O1)C2(C)C)[C@@H](OC(=O)C12CCC(C)(C(=O)O1)C2(C)C)C(C)(C)O3 (stereo partly drawn) [Compound 4, 2-ethyl DCP]	100%

tested on: HIV-1NL4-3; experiment: HIV-1 infectivity assay, single cycle infection, Luc reporter in TZM-bl cells; type: cell-based; details: HIV-1NL4-3 in TZM-bl cells, discussion of Table 2

SMILES	anti-HIV activity (in words)
CCc1cc(=O)c2ccc(OCc3cc(OC)cc(OC)c3)c(COC(=O)C34CCC(C)(C(=O)O3)C4(C)C)c2o1 (stereo not drawn) [Compound 25, 4′-((−)-Camphanoyloxymethyl)-7-(3,5-dimethoxybenzyloxy)-2-ethyl-4H-chromen-4-one]	very weak anti-HIV activity
CCc1cc(=O)c2ccc(OC3CCOC3=O)c(COC(=O)[C@@]34CCC(C)(C(=O)O3)C4(C)C)c2o1 (stereo partly drawn) [Compound 16, 4′-((−)-Camphanoyloxymethyl)-2-ethyl-7-(2-oxo-tetrahydrofuran-3-yloxy)-4H-chromen-4-one]	lost all activity
CCc1cc(=O)c2ccc(OCc3cc(OC)c(OC)cc3[N+](=O)[O-])c(COC(=O)[C@@]34CCC(C)(C(=O)O3)C4(C)C)c2o1 [Compound 28, 4′-((−)-Camphanoyloxymethyl)-7-(4,5-dimethoxy-2-nitrobenzyloxy)-2-ethyl-4H-chromen-4-one]	lost all activity
CCc1cc(=O)c2ccc(OCc3cccc(C(F)(F)F)c3)c(COC(=O)[C@@]34CCC(C)(C(=O)O3)C4(C)C)c2o1 [Compound 20, 4′-((−)-Camphanoyloxymethyl)-2-ethyl-7-(3-(trifluoromethyl)benzyloxy)-4H-chromen-4-one]	lost all activity
